# Results published in ChEMBL document CHEMBL5661943, “ASAP - In vitro antiviral effect” (2024).
# Several values for one entry are separate records, joined by “and”; a condition that tells them apart may be missing. Equal entries are not always repeated.
# Experiments:
# Zika virus = assay: Functional CPE-based assay to measure dose dependent changes in antiviral-drug inhibitory efficacy against Zika virus MR766 in Vero E6 miRFP670 cells (cotreated with P-gp inhibitor, CP100356). Cells are treated with antiviral candidates that are serially diluted. EC50 is reported via analysis of MTS assay as a readout of CPE. The assay has been performed by KU Leuven.; assay type: organism-based, Chlorocebus sabaeus, Vero C1008; settings: for EC90: P-gp concentration 500 nM, P-gp inhibitor CP100356
# dengue virus type 2 = assay: Functional assay to measure dose dependent changes in antiviral-drug inhibitory efficacy against Dengue virus type 2 New Guinea C in Vero E6 miRFP670 cells (cotreated with P-gp inhibitor, CP100356). Cells are treated with antiviral candidates that are serially diluted, following infection, cells are fixed. EC50 is reported via analysis of fluorescence intensity using high-content imager. The …; assay type: organism-based, Chlorocebus sabaeus, Vero C1008; settings: for EC90: P-gp concentration 500 nM, P-gp inhibitor CP100356
smiles,measurement,setting,value
O=C(Nc1ccc2c(c1)CNC2)c1cc(F)cc2[nH]c(-c3cnc(C4CC4)o3)nc12,EC90,"Zika virus; Baseline response 0 %, Hill slope 1.364, Maximum measured 18.791 %, Maximum response 100 %, Minimum measured -1.808 %, R squared 0.107",> 50 µM
same,EC50,"Zika virus; Zika virus, Vero C1008",> 50 µM
same,EC90,"Zika virus; Zika virus, Vero C1008, Baseline response 0 %, Hill slope 2.704, Maximum measured 11.553 %, Maximum response 100 %, Minimum measured -5.923 %, R squared 0.137",> 50 µM
same,EC90,"dengue virus type 2; Baseline response 0 %, EC90 CI (lower) 0.872 uM, EC90 CI (upper) 3.596 uM, Hill slope -8.389, Maximum measured 102.302 %, Maximum response 100 %, Minimum measured 7.049 %, R squared 0.894",2.99 µM
same,EC50,"dengue virus type 2; Dengue virus, Vero C1008",2.33 µM
same,EC90,"dengue virus type 2; Dengue virus, Vero C1008, Baseline response 0 %, EC90 CI (lower) 0.484 uM, EC90 CI (upper) 7.419 uM, Hill slope -10.584, Maximum measured 98.644 %, Maximum response 100 %, Minimum measured 4.286 %, R squared 0.843",2.87 µM
same,EC50,dengue virus type 2; vero c1008,2.3 µM
O=C(Nc1ccc2c(c1)CNC2)c1cc(Cl)cc2cn[nH]c12,EC50,"Zika virus; Zika virus, Vero C1008",3.01 µM
same,EC90,"Zika virus; Zika virus, Vero C1008, Baseline response 0 %, EC90 CI (lower) 2.341 uM, EC90 CI (upper) 14.506 uM, Hill slope 3.321, Maximum measured 138.559 %, Maximum response 100 %, Minimum measured 2.928 %, R squared 0.845",5.83 µM
same,EC50,"dengue virus type 2; Dengue virus, Vero C1008",> 50 µM
same,EC90,"dengue virus type 2; Dengue virus, Vero C1008, Maximum measured 130.797 %, Minimum measured 96.2 %",> 50 µM
O=C(Nc1ccc2c(c1)CNC2)c1cc(Br)cc2[nH]c(=O)[nH]c12,EC50,"Zika virus; Zika virus, Vero C1008",> 50 µM
same,EC90,"Zika virus; Zika virus, Vero C1008, Baseline response 0 %, Hill slope 1.27, Maximum measured 26.011 %, Maximum response 100 %, Minimum measured -2.243 %, R squared 0.854",> 50 µM
same,EC50,"dengue virus type 2; Dengue virus, Vero C1008",> 50 µM
same,EC90,"dengue virus type 2; Dengue virus, Vero C1008, Maximum measured 135.314 %, Minimum measured 105.633 %",> 50 µM
CNC(=O)[C@H](Nc1ccc2c(c1)CNC2)c1cc(Cl)cc2[nH]c(-c3ccccc3)nc12,EC90,"Zika virus; Baseline response 0 %, EC90 CI (lower) 1.657 uM, EC90 CI (upper) 9.069 uM, Hill slope 2.736, Maximum measured 134.068 %, Maximum response 100 %, Minimum measured 11.054 %, R squared 0.856",3.88 µM
same,EC50,"Zika virus; Zika virus, Vero C1008",1.54 µM
same,EC90,"Zika virus; Zika virus, Vero C1008, Baseline response 0 %, EC90 CI (lower) 2.457 uM, EC90 CI (upper) 4.2 uM, Hill slope 2.999, Maximum measured 107.773 %, Maximum response 100 %, Minimum measured 2.918 %, R squared 0.982",3.21 µM
same,EC50,Zika virus; vero c1008,1.74 µM
same,EC50,"dengue virus type 2; Dengue virus, Vero C1008",> 25 µM
same,EC90,"dengue virus type 2; Dengue virus, Vero C1008, Maximum measured 190.221 %, Minimum measured 63.084 %",> 25 µM
same,EC90,"dengue virus type 2; Dengue virus, Vero C1008, Baseline response 0 %, Hill slope -0.424, Maximum measured 89.369 %, Maximum response 100 %, Minimum measured 51.028 %, R squared 0.334",> 25 µM
N#Cc1ccc(-c2nc3c(C(=O)Nc4ccc5c(c4)CNC5)cc(F)cc3[nH]2)cc1,EC90,"Zika virus; Baseline response 0 %, Hill slope 0.2, Maximum measured 29.739 %, Maximum response 100 %, Minimum measured 4.071 %, R squared 0.256",> 50 µM
same,EC50,"Zika virus; Zika virus, Vero C1008",> 50 µM
same,EC90,"Zika virus; Zika virus, Vero C1008, Baseline response 0 %, Hill slope 0.539, Maximum measured 18.428 %, Maximum response 100 %, Minimum measured 0.213 %, R squared 0.888",> 50 µM
same,EC90,"dengue virus type 2; Dengue virus, Vero C1008, Maximum measured 143.39 %, Minimum measured 94.915 %",> 50 µM
same,EC90,"dengue virus type 2; Dengue virus, Vero C1008, Maximum measured 155.678 %, Minimum measured 70.057 %",> 6.25 µM
same,EC50,dengue virus type 2; vero c1008,> 50 µM
Cc1nc2c(C(=O)Nc3ccc4c(c3)CNC4)cc(Cl)cc2[nH]1,EC50,"Zika virus; Zika virus, Vero C1008",> 50 µM
same,EC90,"Zika virus; Zika virus, Vero C1008, Maximum measured 8.786 %, Minimum measured -9.149 %",> 50 µM
same,EC50,"dengue virus type 2; Dengue virus, Vero C1008",> 6.25 µM
same,EC90,"dengue virus type 2; Dengue virus, Vero C1008, Baseline response 0 %, Hill slope -1.031, Maximum measured 89.345 %, Maximum response 100 %, Minimum measured 48.357 %, R squared 0.44",> 6.25 µM
O=C(NC1CCOCC1)[C@H](Nc1ccc2c(c1)CNC2)c1cc(Cl)cc2[nH]ncc12,EC50,"Zika virus; Zika virus, Vero C1008",16.8 µM
same,EC90,"Zika virus; Zika virus, Vero C1008, Baseline response 0 %, Hill slope 1.579, Maximum measured 82.863 %, Maximum response 100 %, Minimum measured -0.215 %, R squared 0.968",> 50 µM
same,EC50,"dengue virus type 2; Dengue virus, Vero C1008",> 50 µM
same,EC90,"dengue virus type 2; Dengue virus, Vero C1008, Maximum measured 134.779 %, Minimum measured 105.958 %",> 50 µM
O=C(Nc1ccc2c(c1)CNC2)c1cc(F)c2[nH]ccc2c1,EC50,"Zika virus; Zika virus, Vero C1008",24.5 µM
same,EC90,"Zika virus; Zika virus, Vero C1008, Baseline response 0 %, Hill slope 0.879, Maximum measured 122.421 %, Maximum response 100 %, Minimum measured -4.109 %, R squared 0.266",> 50 µM
same,EC50,"dengue virus type 2; Dengue virus, Vero C1008",< 0.391 µM
same,EC90,"dengue virus type 2; Dengue virus, Vero C1008, Baseline response 0 %, Hill slope 3.427, Maximum measured 127.165 %, Maximum response 100 %, Minimum measured 69.586 %, R squared 0.325",< 0.391 µM
O=C(Nc1ccc2c(c1)CNC2)c1cc(F)cc2c1CCC2,EC50,"Zika virus; Zika virus, Vero C1008",1.81 µM
same,EC90,"Zika virus; Zika virus, Vero C1008, Baseline response 0 %, EC90 CI (lower) 1.329 uM, EC90 CI (upper) 15.086 uM, Hill slope 2.425, Maximum measured 145.547 %, Maximum response 100 %, Minimum measured 22.113 %, R squared 0.732",4.48 µM
same,EC50,"dengue virus type 2; Dengue virus, Vero C1008",> 6.25 µM
same,EC90,"dengue virus type 2; Dengue virus, Vero C1008, Baseline response 0 %, Hill slope -2.434, Maximum measured 106.021 %, Maximum response 100 %, Minimum measured 60.209 %, R squared 0.87",> 6.25 µM
Cc1cccc(-c2nc3c(C(=O)Nc4ccc5c(c4)CNC5)cc(Cl)cc3[nH]2)c1O,EC50,"Zika virus; Zika virus, Vero C1008",> 50 µM
same,EC90,"Zika virus; Zika virus, Vero C1008, Maximum measured 4.83 %, Minimum measured -9.413 %",> 50 µM
same,EC90,"Zika virus; Zika virus, Vero C1008, Baseline response 0 %, Hill slope 1.997, Maximum measured 9.723 %, Maximum response 100 %, Minimum measured -5.385 %, R squared 0.475",> 50 µM
same,EC50,"dengue virus type 2; Dengue virus, Vero C1008",46.9 µM
same,EC90,"dengue virus type 2; Dengue virus, Vero C1008, Maximum measured 146.036 %, Minimum measured 86.561 %",> 50 µM
same,EC90,"dengue virus type 2; Dengue virus, Vero C1008, Baseline response 0 %, Hill slope -5.285, Maximum measured 123.385 %, Maximum response 100 %, Minimum measured 41.68 %, R squared 0.576",> 50 µM
same,EC50,dengue virus type 2; vero c1008,> 50 µM
CC(C)CNC(=O)[C@H](Nc1ccc2c(c1)CNC2)c1cc(Cl)cc2[nH]ncc12,EC50,"Zika virus; Zika virus, Vero C1008",14.2 µM
same,EC90,"Zika virus; Zika virus, Vero C1008, Baseline response 0 %, EC90 CI (lower) 23.751 uM, EC90 CI (upper) 85.548 uM, Hill slope 1.9, Maximum measured 81.211 %, Maximum response 100 %, Minimum measured -3.072 %, R squared 0.886",45.1 µM
same,EC50,"dengue virus type 2; Dengue virus, Vero C1008",> 50 µM
same,EC90,"dengue virus type 2; Dengue virus, Vero C1008, Maximum measured 133.558 %, Minimum measured 96.187 %",> 50 µM
CCOCCNC(=O)[C@H](Nc1ccc2c(c1)CNC2)c1cc(Cl)cc2[nH]ncc12,EC50,"Zika virus; Zika virus, Vero C1008",39.6 µM
same,EC90,"Zika virus; Zika virus, Vero C1008, Baseline response 0 %, Hill slope 1.597, Maximum measured 58.987 %, Maximum response 100 %, Minimum measured -2.742 %, R squared 0.989",> 50 µM
same,EC50,"dengue virus type 2; Dengue virus, Vero C1008",> 50 µM
same,EC90,"dengue virus type 2; Dengue virus, Vero C1008, Maximum measured 134.278 %, Minimum measured 95.519 %",> 50 µM
O=C(Nc1ccc2c(c1)CNC2)c1cc(F)cc2nn(-c3ccccn3)nc12,EC90,"Zika virus; Baseline response 0 %, Hill slope 0.342, Maximum measured 8.101 %, Maximum response 100 %, Minimum measured -1.287 %, R squared 0.284",> 50 µM
same,EC90,"Zika virus; Baseline response 0 %, Hill slope -0.391, Maximum measured 8.995 %, Maximum response 100 %, Minimum measured 1.943 %, R squared 0.39",> 3.12 µM
same,EC50,Zika virus; vero c1008,> 50 µM
same,EC90,"dengue virus type 2; Baseline response 0 %, EC90 CI (lower) 0.77 uM, EC90 CI (upper) 2.483 uM, Hill slope -4.828, Maximum measured 102.327 %, Maximum response 100 %, Minimum measured 2.546 %, R squared 0.795",3.44 µM
same,EC90,"dengue virus type 2; Dengue virus, Vero C1008, Baseline response 0 %, EC90 CI (lower) 0.427 uM, EC90 CI (upper) 5.546 uM, Hill slope -1.321, Maximum measured 90.171 %, Maximum response 100 %, Minimum measured 71.834 %, R squared 0.697",> 6.25 µM
same,EC50,dengue virus type 2; vero c1008,> 6.25 µM and 2.18 µM
CCCNC(=O)[C@H](Nc1ccc2c(c1)CNC2)c1cc(Cl)cc2[nH]ncc12,EC50,"Zika virus; Zika virus, Vero C1008",6.6 µM
same,EC90,"Zika virus; Zika virus, Vero C1008, Baseline response 0 %, EC90 CI (lower) 8.551 uM, EC90 CI (upper) 22.021 uM, Hill slope 3.004, Maximum measured 121.473 %, Maximum response 100 %, Minimum measured -0.697 %, R squared 0.949",13.7 µM
same,EC50,"dengue virus type 2; Dengue virus, Vero C1008",> 50 µM
same,EC90,"dengue virus type 2; Dengue virus, Vero C1008, Maximum measured 131.319 %, Minimum measured 89.09 %",> 50 µM
O=C(Nc1ccc2c(c1)CNC2)c1cc(F)cc2[nH]c(-c3ccccc3)nc12,EC50,"Zika virus; Zika virus, Vero C1008",2.13 µM
same,EC90,"Zika virus; Zika virus, Vero C1008, Baseline response 0 %, Hill slope 1.327, Maximum measured 69.085 %, Maximum response 100 %, Minimum measured 18.26 %, R squared 0.744",> 3.12 µM
same,EC90,"dengue virus type 2; Dengue virus, Vero C1008, Maximum measured 101.649 %, Minimum measured 101.649 %",> 0.391 µM
same,EC90,"dengue virus type 2; Dengue virus, Vero C1008, Maximum measured 246.46 %, Minimum measured 208.361 %",> 6.25 µM
same,EC50,dengue virus type 2; vero c1008,> 6.25 µM
